Laboratory results taken from PubChem BioAssay AID330 (DTP/NCI, 2004).
“And” between values parts separate entries of the source, which are not always exact repeats. Equal entries are not always repeated. Toxic doses and inconclusive results are not listed.

System: P388 leukemia ip, CD2F1 mice, survival T/C
Test: NCI In Vivo Anticancer Drug Screen. Data for tumor model P388 Leukemia (intraperitoneal) in CD2F1 (CDF1) mice
Conditions: endpoint: median survival time, higher = longer survival
Procedure, shortened: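 Mice carrying the transplanted tumor received test compound or vehicle. Survival was recorded in each group, and the value is the treated-group measurement divided by that of the vehicle-treated control group.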

[1] = dose: 60.0 mg/kg/injection, schedule: Q01DX005 (ip), vehicle: saline with Tween-80
[2] = dose: 120.0 mg/kg/injection, schedule: Q01DX005 (ip), vehicle: saline with Tween-80
[3] = dose: 240.0 mg/kg/injection, schedule: Q01DX005 (ip), vehicle: saline with Tween-80
[4] = dose: 60.0 mg/kg/injection, schedule: Q01DX005 (ip), vehicle: saline
[5] = dose: 100.0 mg/kg/injection, schedule: Q04DX003 (ip), vehicle: saline with Tween-80
[6] = dose: 50.0 mg/kg/injection, schedule: Q01DX005 (ip), vehicle: saline with Tween-80
[7] = dose: 100.0 mg/kg/injection, schedule: Q01DX005 (ip), vehicle: saline with Tween-80
[8] = dose: 200.0 mg/kg/injection, schedule: Q01DX005 (ip), vehicle: saline with Tween-80
[9] = dose: 25.0 mg/kg/injection, schedule: Q01DX009 (ip), vehicle: saline
[10] = dose: 50.0 mg/kg/injection, schedule: Q01DX009 (ip), vehicle: saline
[11] = dose: 100.0 mg/kg/injection, schedule: Q01DX009 (ip), vehicle: saline
[12] = dose: 100.0 mg/kg/injection, schedule: Q01DX009 (ip), vehicle: Klucel (hydroxypropylcellulose) (HPC)
[13] = dose: 200.0 mg/kg/injection, schedule: Q01DX009 (ip), vehicle: Klucel (hydroxypropylcellulose) (HPC)
[14] = dose: 50.0 mg/kg/injection, schedule: Q01DX005 (ip), vehicle: Klucel (hydroxypropylcellulose) (HPC)
[15] = dose: 100.0 mg/kg/injection, schedule: Q01DX005 (ip), vehicle: Klucel (hydroxypropylcellulose) (HPC)
[16] = dose: 200.0 mg/kg/injection, schedule: Q01DX005 (ip), vehicle: Klucel (hydroxypropylcellulose) (HPC)
[17] = dose: 200.0 mg/kg/injection, schedule: Q01DX009 (ip), vehicle: saline

For `CCC(c1ccc(OC)cc1)C(NC(=S)NCc1ccccc1)c1ccc(OC)cc1` (centres undefined), the T/C (dose: 100.0 mg/kg/injection, schedule: Q04DX002 (ip), vehicle: saline with Tween-80) was 94 % of control and the T/C (dose: 200.0 mg/kg/injection, schedule: Q04DX002 (ip), vehicle: saline with Tween-80) was 91 % of control.

For `CCO/C=C1/N=C(c2cccc3ccccc23)OC1=O`, the T/C [1] was 99 % of control, the T/C [2] was 99 % of control and the T/C [3] was 99 % of control.

In the case of `CC(=O)/C(=C\c1ccc([N+](=O)[O-])cc1)C(=O)CCN(C)C`, the T/C (dose: 30.0 mg/kg/injection, schedule: Q01DX005 (ip), vehicle: saline) is reported as 118 % of control and the T/C [4] is reported as 121 % of control and 123 % of control.

In the case of `COc1ccc(OC)c(/C=C(/C)[N+](=O)[O-])c1`, the T/C (dose: 44.0 mg/kg/injection, schedule: Q04DX003 (ip), vehicle: saline with Tween-80) is reported as 119 % of control, the T/C (dose: 66.0 mg/kg/injection, schedule: Q04DX003 (ip), vehicle: saline with Tween-80) is reported as 117 % of control and the T/C [5] is reported as 123 % of control. For the same compound, the T/C (dose: 150.0 mg/kg/injection, schedule: Q04DX003 (ip), vehicle: saline with Tween-80) was 124 % of control.

In the case of `O=C(N/N=C/c1ccccc1O)c1ccccc1O`, the T/C [6] is reported as 100 % of control, the T/C [7] is reported as 96 % of control and the T/C [8] is reported as 99 % of control.

With `O=[N+]([O-])c1ccc(SCc2ccccc2)c2nonc12` the T/C (dose: 12.5 mg/kg/injection, schedule: Q01DX009 (ip), vehicle: suspension in saline) was 111 % of control, the T/C [9] was 94 % of control and the T/C (dose: 25.0 mg/kg/injection, schedule: Q01DX009 (ip), vehicle: suspension in saline) was 106 % of control. The T/C [10] was 100 % of control, the T/C (dose: 50.0 mg/kg/injection, schedule: Q01DX009 (ip), vehicle: suspension in saline) was 113 % of control and the T/C [11] was 94 % of control.

For `Cc1c(N=Nc2cccc(Cl)c2Cl)c(-c2ccccc2)nn1C(=S)S`, the T/C [6] was 106 % of control, the T/C [7] was 94 % of control and the T/C [8] was 103 % of control.

`CNC(=S)N/N=C(\C)c1ccccn1` was tested, and the T/C (dose: 12.5 mg/kg/injection, schedule: Q01DX009 (ip), vehicle: saline with Tween-80) was 107 % of control and 117 % of control and the T/C (dose: 25.0 mg/kg/injection, schedule: Q01DX009 (ip), vehicle: saline with Tween-80) was 116 % of control.

In the case of `COC1/C=C/OC2(C)Oc3c(C)c(O)c4c(c3C2=O)C(=O)C([N+](=O)[O-])=C(NC(=O)C(C)=C/C=C\C(C)C(O)C(C)C(O)C(C)C(OC(C)=O)C1C)C4=O` (centres undefined), the T/C [12] is reported as 90 % of control and the T/C [13] is reported as 98 % of control.

In the case of `CCOC(=O)C(=CNc1cc(OC(C)=O)ccc1C)C(=O)OCC`, the T/C [14] is reported as 110 % of control, the T/C [15] is reported as 100 % of control and the T/C [16] is reported as 96 % of control.

For `Cc1ncc(COP(=O)(O)O)c(C2NCCS2)c1O` (centres undefined), the T/C [4] was 102 % of control, the T/C (dose: 120.0 mg/kg/injection, schedule: Q01DX005 (ip), vehicle: saline) was 105 % of control and the T/C (dose: 240.0 mg/kg/injection, schedule: Q01DX005 (ip), vehicle: saline) was 102 % of control.

With `CCCCCCCCCCCCCCCCS(=O)(=O)N/N=C(/c1ccc(Cl)cc1)N1CCCCC1` the T/C (dose: 50.0 mg/kg/injection, schedule: Q01DX009 (ip), vehicle: Klucel (hydroxypropylcellulose) (HPC)) was 100 % of control, the T/C [12] was 102 % of control and the T/C [13] was 92 % of control.

In the case of `c1cc(OCCOc2cccc3ocnc23)c2ncoc2c1`, the T/C [1] is reported as 98 % of control and 92 % of control, the T/C [2] is reported as 99 % of control and the T/C [3] is reported as 86 % of control and 89 % of control.

`CC1(C)OC2OC3C(CNCCO)OC(c4ccccc4)OC3C2O1` (centres undefined) was tested, and the T/C [14] was 107 % of control, the T/C [15] was 108 % of control and the T/C [16] was 101 % of control.

`CCc1c2cc(OC)c(OC)cc2cc2c3cc(OC)c(OC)cc3cc[n+]12` (tested in a mixture with another compound) was tested, and the T/C (dose: 8.8 mg/kg/injection, schedule: Q04DX003 (ip), vehicle: saline) was 108 % of control, the T/C (dose: 20.0 mg/kg/injection, schedule: Q04DX003 (ip), vehicle: saline) was 122 % of control and the T/C [9] was 151 % of control. For the same compound, the T/C (dose: 29.3 mg/kg/injection, schedule: Q01DX009 (ip), vehicle: saline with Tween-80) was 153 % of control, the T/C (dose: 37.5 mg/kg/injection, schedule: Q01DX009 (ip), vehicle: saline with Tween-80) was 167 % of control and the T/C (dose: 44.0 mg/kg/injection, schedule: Q01DX009 (ip), vehicle: saline with Tween-80) was 170 % of control. For the same compound, the T/C [10] was 178 % of control, the T/C (dose: 66.0 mg/kg/injection, schedule: Q01DX009 (ip), vehicle: saline with Tween-80) was 201 % of control and the T/C (dose: 75.0 mg/kg/injection, schedule: Q01DX009 (ip), vehicle: saline with Tween-80) was 208 % of control. For the same compound, the T/C (dose: 88.0 mg/kg/injection, schedule: Q04DX003 (ip), vehicle: saline) was 150 % of control, the T/C [5] was 154 % of control and the T/C (dose: 150.0 mg/kg/injection, schedule: Q01DX009 (ip), vehicle: saline with Tween-80) was 234 % of control. The T/C (dose: 150.0 mg/kg/injection, schedule: Q01DX009 (ip), vehicle: saline) was 244 % of control and 92 % of control, the T/C [17] was 171 % of control and the T/C (dose: 200.0 mg/kg/injection, schedule: Q04DX003 (ip), vehicle: saline with Tween-80) was 181 % of control. For the same compound, the T/C (dose: 200.0 mg/kg/injection, schedule: Q04DX003 (ip), vehicle: saline) was 150 % of control and 191 % of control, the T/C (dose: 225.0 mg/kg/injection, schedule: Q01DX009 (ip), vehicle: saline) was 218 % of control and the T/C (dose: 300.0 mg/kg/injection, schedule: Q04DX003 (ip), vehicle: saline) was 195 % of control. The T/C (dose: 400.0 mg/kg/injection, schedule: Q04DX003 (ip), vehicle: saline with Tween-80) was 90 % of control and the T/C (dose: 400.0 mg/kg/injection, schedule: Q04DX003 (ip), vehicle: saline) was 104 % of control.

In the case of `CC(=O)OCC12C(=O)CC(C)C3(CC(c4ccoc4)OC3=O)C1(C)CCCC21CO1` (centres undefined) (tested in a mixture with another compound), the T/C (dose: 12.0 mg/kg/injection, schedule: Q01DX005 (ip), vehicle: Klucel (hydroxypropylcellulose) (HPC)) is reported as 94 % of control, the T/C (dose: 24.0 mg/kg/injection, schedule: Q01DX005 (ip), vehicle: Klucel (hydroxypropylcellulose) (HPC)) is reported as 92 % of control and the T/C (dose: 48.0 mg/kg/injection, schedule: Q01DX005 (ip), vehicle: Klucel (hydroxypropylcellulose) (HPC)) is reported as 91 % of control. The T/C (dose: 96.0 mg/kg/injection, schedule: Q01DX005 (ip), vehicle: Klucel (hydroxypropylcellulose) (HPC)) was 100 % of control.

In the case of `CC(C)CN1C(=O)C2C3CCC(O3)C2C1=O` (centres undefined), the T/C [1] is reported as 91 % of control, the T/C [2] is reported as 91 % of control and the T/C [3] is reported as 91 % of control.

In the case of `COc1ccc(/C=N/NC(=O)C(O)c2ccccc2)cc1` (centres undefined), the T/C [1] is reported as 99 % of control, the T/C [2] is reported as 90 % of control and the T/C [3] is reported as 91 % of control.

With `CN1CCN(Cc2ccccc2)C(C#N)C1` (centres undefined) the T/C (dose: 3.13 mg/kg/injection, schedule: Q01DX005 (ip), vehicle: water) was 100 % of control, the T/C (dose: 6.25 mg/kg/injection, schedule: Q01DX005 (ip), vehicle: water) was 95 % of control and the T/C (dose: 12.5 mg/kg/injection, schedule: Q01DX005 (ip), vehicle: water) was 93 % of control. The T/C (dose: 25.0 mg/kg/injection, schedule: Q01DX005 (ip), vehicle: water) was 100 % of control, the T/C (dose: 50.0 mg/kg/injection, schedule: Q01DX005 (ip), vehicle: water) was 105 % of control and 112 % of control and the T/C (dose: 100.0 mg/kg/injection, schedule: Q01DX005 (ip), vehicle: water) was 105 % of control.

In the case of `O=C(OCCO)N1CCN(C(=O)OCCO)CC1`, the T/C [10] is reported as 101 % of control, the T/C [11] is reported as 103 % of control and the T/C [17] is reported as 101 % of control. For the same compound, the T/C (dose: 400.0 mg/kg/injection, schedule: Q01DX009 (ip), vehicle: saline) was 98 % of control.

`O=NNc1ncc([N+](=O)[O-])s1` was tested, and the T/C (dose: 3.12 mg/kg/injection, schedule: Q01DX009 (ip), vehicle: water) was 103 % of control, the T/C (dose: 6.25 mg/kg/injection, schedule: Q01DX009 (ip), vehicle: water) was 97 % of control and the T/C (dose: 12.5 mg/kg/injection, schedule: Q01DX009 (ip), vehicle: water) was 94 % of control. For the same compound, the T/C (dose: 25.0 mg/kg/injection, schedule: Q01DX009 (ip), vehicle: water) was 100 % of control and 96 % of control, the T/C (dose: 50.0 mg/kg/injection, schedule: Q01DX009 (ip), vehicle: water) was 100 % of control and 97 % of control and the T/C (dose: 100.0 mg/kg/injection, schedule: Q01DX009 (ip), vehicle: water) was 101 % of control. For the same compound, the T/C (dose: 200.0 mg/kg/injection, schedule: Q01DX009 (ip), vehicle: water) was 105 % of control.
